Measured values from US8679478B2, “Methods of lysosomal storage disease therapy” (Duke University, priority 2010, dated 2014).

Experiments:
Format in all cases: in vivo, mouse
[1] = tested on: GAA-KO mice; assay: Weight gain, ERT plus clenbuterol; settings: ERT plus clenbuterol v. ERT alone; male mice; p<0.05 at weeks 1-3
Experimental: GAA-KO mice were administered four weekly doses of rhGAA (20 mg/kg), and treated with clenbuterol (n=5) or ERT alone (n=5). […] Mean+/−standard deviation are shown. Statistically significant differences indicated (*=p<0.05; **=p<0.01).
(§1) The efficacy from gene therapy was increased by β2 agonist stimulation from clenbuterol treatment, and this benefit might be expected to affect ERT in Pompe disease, as well. Therefore, groups of 3 month-old GAA-KO mice were treated with four weekly doses of rhGAA (20 mg/kg), with or without concurrent clenbuterol treatment.

[2] = tested on: immune tolerant GAA-KO mice; assay: Weight of gastrocnemius, ERT plus β2 agonist; settings: clenbuterol plus ERT v. ERT alone or albuterol plus ERT
Experimental: (§2) GAA-KO mice were administered four weekly doses of rhGAA (20 mg/kg), and treated with medium dose clenbuterol (n=7), albuterol (n=4) or untreated (n=6 or 3). […] Mean+/−standard deviation are shown. P values indicate statistically significant differences (lines).
(§3) Two β2 agonists were evaluated in combination with ERT, clenbuterol and albuterol. The dose of clenbuterol was reduced 5-fold from the concentration used in Example 4, to 6 mg/l in drinking water, while albuterol was evaluated at the higher dose (30 mg/l in drinking water). Groups of 3 month-old immune tolerant GAA-KO mice (Raben et al., Human Mol. Genet., 2001, 10:2039-2047) were treated with four weekly doses of rhGAA (20 mg/kg body weight), with or without concurrent β2 agonist treatment.
(§4) Mice were sacrificed 7 days after the last injection. Selected tissues were collected for GAA enzyme activity and glycogen content analyses. […] GAA activity and glycogen content analyses, Rotarod testing, and Western blot detection of CI-MPR was performed essentially as described (Koeberl et al., Mol. Genet. Metab., 2011, 103:107-112. Wire hang testing was performed with a 0.5 cm mesh hardware cloth fixed to an 8 by 10 inch frame. Mice were placed on the wire mesh, which was slowly inverted 6 inches over a cage containing paper bedding. The latency, or time until the mouse fell into the cage, was recorded.

[3] = tested on: immune tolerant GAA-KO mice; assay: Wire hang testing, ERT plus β2 agonist; settings: clenbuterol plus ERT v. ERT alone
Experimental: as §2, §3, §4

[4] = tested on: GAA-KO mice; assay: Glycogen content in muscles, ERT plus clenbuterol or albuterol; settings: for glycogen content for quadriceps: p<0.001; for Glycogen content: ERT plus clenbuterol v. ERT alone
Experimental: FIG. 8A-8C depicts increased GAA uptake and increased glycogen clearance in GAA-KO mice following clenbuterol treatment and ERT. […] GAA-KO mice were administered four weekly doses of rhGAA (20 mg/kg), and treated with clenbuterol (n=6) or untreated (n=5). […] Mean+/−standard deviation are shown. Statistically significant differences indicated (*=p<0.05; **=p<0.01).
GAA-KO mice were treated with weekly rhGAA (20 mg/kg): with medium clenbuterol, […] (n=6), with low clenbuterol, 1.3 mg/ml (n=6), with albuterol 30 mg/ml (n=4), or without drug treatment (n=3). Drugs were administered in the drinking water. Mean+/−s.d. shown. Statistically significant differences indicated (*=p<0.05; **=p<0.01).
For in vivo analysis of AAV vectors, stocks were administered intravenously (via the retroorbital sinus) in 3 month-old and 15 month-old GAA-KO mice, and to 3 month-old tolerant GAA-KO and DKO mice. Clenbuterol (30 μg/ml) was administered to groups of 3 month-old vector-injected and mock-injected male GAA-KO mice in drinking water for 28 days. At the indicated time points post-injection, tissue samples were obtained and processed as described below. All animal procedures were done in accordance with Duke University Institutional Animal Care and Use Committee-approved guidelines. GAA activity and glycogen content were analyzed essentially as described (Sun et al., Mol. Ther., 2005, 11:889-898; Sun et al., Mol. Ther., 2005, 11: 57-65). Rotarod testing was performed essentially as described (Sun, B. D. et al. 2005). Western blotting of hGAA was performed essentially as described (Amalfitano et al., Proc. Natl. Acad. Sci. USA, 1999, 96: 8861-8866) using the hGAA monoclonal antibody (courtesy of Genzyme Corp., Framingham, Mass.) and the CI-MPR antibody (catalog number GTX28093; Gene Tex, Irvine, Calif.).
as §1

[5] = tested on: immune tolerant GAA-KO mice; assay: GAA activity in tissues, ERT plus β2 agonist (Example 6)
Experimental: Male GAA-KO mice were administered four weekly doses of 20 mg/kg body weight of rhGAA and sacrificed one week following the last injection. Groups of mice were treated with clenbuterol (n=6), albuterol (n=4) or untreated (n=6). Mice were euthanized for tissue analysis 5 weeks after initiation of ERT.
Cerebral and cerebellar hemispheres were analyzed 5 weeks following the initiation of ERT. Groups of mice were treated with clenbuterol (n=6), albuterol (n=4) or untreated (n=6).
Two β2 agonists were evaluated in combination with ERT, clenbuterol and albuterol. […] Groups of 3 month-old immune tolerant GAA-KO mice (Raben et al., Human Mol. Genet., 2001, 10:2039-2047) were treated with four weekly doses of rhGAA (20 mg/kg body weight), with or without concurrent β2 agonist treatment.
Mice were sacrificed 7 days after the last injection. Selected tissues were collected for GAA enzyme activity and glycogen content analyses. All animal procedures were done in accordance with Duke University Institutional Animal Care and Use Committee-approved guidelines. GAA activity and glycogen content analyses, Rotarod testing, and Western blot detection of CI-MPR was performed essentially as described (Koeberl et al., Mol. Genet. Metab., 2011, 103:107-112. Wire hang testing was performed with a 0.5 cm mesh hardware cloth fixed to an 8 by 10 inch frame. Mice were placed on the wire mesh, which was slowly inverted 6 inches over a cage containing paper bedding. The latency, or time until the mouse fell into the cage, was recorded.

CC(C)(C)NCC(O)c1cc(Cl)c(N)c(Cl)c1 (centres unmarked) [clenbuterol]
weight gain [1]: increased weight gain
weight of the gastrocnemius [2]: increased
Wire hang latency [3]: increased significantly
glycogen content for quadriceps ([4]; ERT plus clenbuterol 1.3 μg/ml (Low) in drinking water): significantly reduced
glycogen content for quadriceps ([4]; ERT plus clenbuterol 6 μg/ml (Medium) in drinking water): significantly reduced
Glycogen content ([4]; diaphragm, p=0.0002): significantly reduced
glycogen clearance ([4]; gastrocnemius, ERT plus clenbuterol): absence of increased glycogen clearance
Glycogen content ([4]; quadriceps, p=0.00002): significantly reduced
Glycogen content ([4]; tibialis anterior, p=0.002): significantly reduced
GAA activity ([5]; cerebellum, 5 weeks after initiation of ERT, clenbuterol p=0.08, albuterol p=0.09): trend toward increased GAA activity
GAA activity in tissues with reduced glycogen content ([5]; β2 agonist plus ERT v. ERT alone): unchanged
